# Results taken from patent US12502430B2, “Compound for photodynamic therapy of cancer, composition including same, and method for photodynamic therapy of cancer” (Pukyong National University Industry-University Cooperation …, priority 2021, dated 2025).
# pIC50: −log10 of the molar value.
# Assays:
# [1] = UV-Vis absorption and fluorescence emission spectroscopy; format: physicochemical; conditions: in Toluene
# Text: The photophysical properties of the collected products were studied by UV-Vis absorption and fluorescence emission spectroscopy, and the results are shown in FIGS. 1A to 1B and Table 1. In the UV-Vis absorption spectrum, BO and NO show absorption peaks in the region of about 380 nm, and BS and NS show absorption maximum values in the region of about 435 nm. The difference in the absorption peak may be confirmed from the shape difference of the HOMO-LUMO of FIG. 2A.
# [2] = Singlet oxygen quantum yield determination; format: physicochemical; conditions: determined with respect to Ru(bpy)3^2+; — = not observed
# Text: Compounds BO and NO show strong fluorescence (ΦFBO=0.71, ΦF NO=0.28), but ISC is inefficient due to weak spin-orbit coupling (SOC).
# HeLa cells [3] = assay: MTT photo/dark cytotoxicity assay with blue light irradiation; format: cell-based; conditions: for cell viability (dark cytotoxicity): MTT, FIGS. 3A and 3B, 20 μM printed for BS; for pIC50: normoxia, after blue light irradiation, read-out: IC50 (photocytotoxicity); for cancer cell toxicity without light: working concentration; for cell death under blue light irradiation: both normoxia and hypoxia
# Protocol: Cell toxicity was evaluated by treating HeLa cells with 10 μM NS and BS solutions, respectively, incubating cells for 30 minutes, and then irradiating blue light (blue LED, 80 mW/cm^2) for 5 minutes. The results are shown in FIGS. 3A to 3C and FIGS. 4A to 4D. Based on the ^1O2 generation efficiency and photostability of BS and NS of FIGS. 3A to 3C, photo/dark cytotoxicity to HeLa cells was observed using MTT (traditional methyl thiazolytetralium) assay. FIGS. 3A and 3B show viability of 85% in BS (20 μM) and 97% in NS. The introduction of the C═S bond leads to a highly efficient ISC process, improving the generation of type I and type II ROS, thereby resulting in high ^1O2 quantum yield as well as O2· production. […] NS induces higher photocytotoxicity than BS by higher oxygen quantum yield and may be utilized as a phototheranostic agent with a low IC50 value in normoxia. Further, in FIG. 3C, NS (3 μM) has a cell viability of 29.6% under a normoxia condition and a cell viability of 36.5% under a hypoxia condition (mixed gas: 5% CO2, 1% O2 and 94% N2) so as to effectively induce photocytotoxicity to HeLa cells.
# HeLa cells [4] = assay: DCFH-DA ROS fluorescence imaging after blue LED irradiation; format: cell-based; conditions: 5 μM, DCFH-DA 10 μM, blue LED 5 minutes
# Protocol: FIG. 4A is a diagram illustrating a fluorescence image of live HeLa cells after incubation in BS (5 μM) and DCFH-DA (10 μM) for 30 minutes, and FIG. 4C is a diagram illustrating a BS fluorescence image after light irradiation under blue LED light for 5 minutes thereafter (λ=473 nm and λem=490 to 590 nm) according to an example embodiment of the present disclosure in which these compounds were dissolved in DMSO.
# FIG. 4B is a diagram illustrating s a fluorescence image of live HeLa cells after incubation in NS (5 μM) and DCFH-DA (10 μM) for 30 minutes according to an example embodiment of the present disclosure, and FIG. 4D is a diagram illustrating an NS fluorescence image after light irradiation under blue LED light for 5 minutes thereafter (λex=473 nm and λem=490 to 590 nm) in which these compounds were dissolved in DMSO.
# Finally, their fluorescence is completely recovered after hypochlorite anion (OCl^−) treatment using the OCl^− probe of live HeLa cells. […] It may be confirmed that the C═S group plays an important role in the generation of type I ROS of previously unreported photosensitizers (PS).
# [5] = Response and selectivity for detection of OCl− (UV-Vis and fluorescence); conditions: 20 μM; for isosbestic point in UV-vis titration with OCl−: NaClO 0 to 75 μM, PBS pH 7.4 with 50% THF; for selectivity for OCl− among ROS, RNS and metal ions: OCl− 60 μM, PBS pH 7.4/THF (5/5); for fluorescence wavelength at which intensity was read: PBS buffer 10 mM pH 7.4 containing 50% THF
# Protocol: Fluorescence intensity ratios were measured for each of BS and NS in […] (10 mM, pH=7.4) containing 50% THF at the presence of OCl^− (60 μM), ROO·(1 mM), NO·(1 mM), H2O2 (1 mM), TBHP (1 mM), ONOO^− (100 μM), ·OH (200 μM) and various metal ions (200 μM): Ag^+, Hg^2+, Fe^2+, and other ions (Ni^2+, Cu^2+, Zn^2+, Cd^2+, Mg^2+, Ca^2+, Cr^3+, Mn^2+, Fe^3+, Li^+, Na^+, K^+, Cs^+). Recognition of ROS, RNS and metal cations by BS and NS was investigated through colorimetric changes, UV absorption and fluorescence emission changes in PBS 7.4 pH/THF (5/5).
# Similarly, in FIG. 6C, the broad absorption band decreases in the 420 to 600 nm range of the NS solution, whereas the absorption band at 370 nm gradually increases with OCI^−-addition (a characteristic of NO).
# In Scheme 3, the photophysical change by oxidative desulfurization from the C═S groups of BS and NS to the corresponding C═O groups of BO and NO by hypochlorous acid (OCl^−) may be shown.
# HeLa cells [6] = assay: Bio-imaging of OCl− by confocal fluorescence microscopy; format: cell-based; conditions: 10 μM, 10 minutes, then OCl− 10 minutes
# Protocol: HeLa cells were treated with 10 μM NS and BS solutions, respectively. Then, HeLa cells were incubated for 10 minutes and then incubated with hypochlorous acid (OCl^−) for 10 minutes to perform hypochlorous acid (OCl^−) detection fluorescence signal and bioimaging.
"ΦF (fluorescence quantum yield) ([1]; Rhodamine 6G as the standard, — = not observed)",SMILES,ΔV (Stock shift) [1] [nm],ε × 10^3 [1],λems [1] [nm],ΦΔ (singlet oxygen quantum yield) [2],cell viability (dark cytotoxicity) (HeLa cells [3]; HeLa cells) [%],pIC50 (HeLa cells [3]; HeLa cells),cancer cell toxicity without light (HeLa cells [3]; HeLa cells),cell death under blue light irradiation (HeLa cells [3]),ROS generation (DCFH-DA green signal) (HeLa cells [4]),isosbestic point in UV-vis titration with OCl− [5] [nm],"selectivity for OCl− among ROS, RNS and metal ions [5]",fluorescence wavelength at which intensity was read [5] [nm],intracellular OCl− detection (HeLa cells [6]),"cell viability, hypoxia (HeLa cells [3]; HeLa cells, 3 μM, hypoxia condition (5% CO2, 1% O2 and 94% N2), light) [%]","cell viability, normoxia (HeLa cells [3]; HeLa cells, 3 μM, normoxia condition, light) [%]"
0.71,"O=c1c2cccc3cccc(c32)c2nc3ccccc3n12 [BO, reference compound]",105,8.54 × 10^3 M^−1 cm^−1,488,–,–,–,–,–,–,–,–,–,–,–,–
–,S=c1c2cccc3cccc(c32)c2nc3ccccc3n12 [BS],66,10.85 × 10^3 M^−1 cm^−1,495,0.66,85,5.24,negligible cancer cell toxicity,rapidly induce cell death,may generate ROS,403,high selectivity,505,adequately detect OCl^−,–,–
–,S=c1c2cccc3cccc(c32)c2nc3cc4ccccc4cc3n12 [NS],110,17.87 × 10^3 M^−1 cm^−1,551,0.81,97,5.99,negligible cancer cell toxicity,rapidly induce cell death,may generate ROS,411,high selectivity,559,adequately detect OCl^−,36.5,29.6
